Test [1] can be described thus: Inhibition of GST-fused HCMV protease expressed in Escherichia coli by scintillation counting. On the set-up: species or system Human betaherpesvirus 5.
The subject of a further test is M109. As to the kind of experiment: Cytotoxicity against mouse M109 cells by XTT assay. In kind it is functional, cell-based. For orientation: Formazan colour is commonly taken as a measure of viable cells.

For `Cc1cc(O)c2cc3c(c(O)c2c1)C(=O)c1ccc([C@@H]2C[C@H](O[C@H]4CC[C@H](O[C@H]5C[C@@H](O[C@H]6CC[C@H](O)[C@H](C)O6)[C@H](O)[C@H](C)O5)[C@H](C)O4)[C@@H](O)[C@@H](C)O2)c(O)c1C3=O`, the half-maximal inhibitory concentration (IC50) (in general, the concentration that inhibits the measured activity by half) was determined as 52 µM in test [1] and 12 µM with M109.
The matching figures for `Cc1cc(O)c2cc3c(c(O)c2c1)C(=O)c1ccc([C@H]2C[C@@H](O[C@H]4CC[C@H](O[C@H]5C[C@@H](O)[C@H](O)[C@@H](C)O5)[C@H](C)O4)[C@H](O)[C@@H](C)O2)c(O)c1C3=O` [QUANOLIRONE I]: 14 µM and 14 µM.
In the case of `Cc1cc(O)c2cc3c(c(O)c2c1)C(=O)c1ccc([C@H]2C[C@@H](O[C@@H]4CC[C@@H](O)[C@@H](C)O4)[C@H](O)[C@@H](C)O2)c(O)c1C3=O` [QUANOLIRONE II], the values for the IC50 (in test [1]; with M109) were 35 µM and 89 µM, respectively.

(Values after ChEMBL document CHEMBL1151309, “Quanolirones I and II, two new human cytomegalovirus protease inhibitors produced by Streptomyces sp. WC76535” (J Nat Prod, 1998).)
